Laboratory results taken from paper PMC9325719 (Nature Communications, 2022).

Target: Na+-NQR (Na+-pumping NADH-ubiquinone oxidoreductase), inhibitor site at NqrB N-terminal region (Vibrio cholerae, UniProt A5F5X0, E157A)
Settings: substrates NADH and ubiquinone-1; 50% inhibition not reached at highest concentration; mutant activity 50-60% lower than wild type

CCCCCCCC[C@H]1O[C@H]1C/C=C/C=C/[C@H](O)CC(=O)NC1=C[C@](C)(CC)OC1=O [korormicin A]
IC50: > 2000 nM
